Strand notation (5' to 3'): a small letter for the sugar, then the base; units joined by * are phosphorothioate-linked, units joined directly phosphodiester-linked; [ ] holds rarer units or linkages, { } end groups; capitals alone tell only the bases. e = 2'-O-(2-methoxyethyl) (MOE); [5mC] = 5-methylcytosine; d = 2'-deoxy (DNA)

In the series the test system is mouse RANKL mRNA. In words: Antisense inhibition of mouse RANKL mRNA levels in C2C12 cells, quantitative real-time PCR (Table 2). The series is classed as cell-based. Also noted: concentration or dose not given beside the values. Conditions: averages from three experiments. The procedure:
Cells were seeded into 24-well plates (Falcon-353047 at a density of ˜10,000 cells/cm^2 for use in antisense oligonucleotide transfection.
Cells are treated and data are obtained in triplicate. […] Cells were harvested 16-24 hours after oligonucleotide treatment.
PCR reagents were obtained from Invitrogen Corporation, (Carlsbad, Calif.).
Probes and primers to mouse RANKL were designed to hybridize to a mouse RANKL sequence, using published sequence information (GenBank accession number AF013170.1, incorporated herein as SEQ ID NO:ll). For mouse RANKL the PCR primers were: • forward primer: […] (SEQ ID NO:12) • reverse primer: […] (SEQ ID NO: 13) and • the PCR probe was: FAM-[…]-TAMRA (SEQ ID NO: 14) where FAM is the fluorescent reporter dye and TAMRA is the quencher dye. For mouse GAPDH the PCR primers were: • forward primer: […](SEQ ID NO:15) • reverse primer: […](SEQ ID NO:16) and the • PCR probe was: 5′ JOE-[…]-TAMRA 3′ (SEQ ID NO: 17) where JOE is the fluorescent reporter dye and TAMRA is the quencher dye.
In accordance with the present invention, a second series of antisense compounds was designed to target different regions of the mouse RANKL RNA, using published sequences (GenBank accession number AF013170.1, incorporated herein as SEQ ID NO: 11). […] All cytidine residues are 5-methylcytidines. […] If present “N.D.” indicates “no data”.
(Real-time PCR tracks product formation cycle by cycle.)
Consider “gcatcggaatacctctccca (antisense eG*e[5mC]*eA*eT*e[5mC]*dG*dG*dA*dA*dT*dA*d[5mC]*d[5mC]*dT*d[5mC]*eT*e[5mC]*e[5mC]*e[5mC]*eA) [ISIS 180817, 2′-MOE gapmer targeted to mouse RANKL]”, for which the “% INHIB (inhibition of mouse RANKL mRNA levels)” value (from here on “% INHIB”) is reported as “at least 40%”.
The result for “180825 (antisense eG*eT*eA*e[5mC]*eA*dT*dT*dT*dA*dA*dA*dA*d[5mC]*dA*dT*eT*eA*eA*eA*eT) [compound 180825]” reads 25%; that for “180788 (antisense eG*eT*eT*e[5mC]*eA*d[5mC]*dA*dA*dA*dG*dG*dT*d[5mC]*d[5mC]*dT*eG*eG*e[5mC]*eA*eG) [compound 180788]”, 62%.
As for “180801 (antisense eA*eA*e[5mC]*eA*eT*dG*dG*dA*dG*d[5mC]*dG*dG*dG*dA*dG*eG*e[5mC]*eG*eG*e[5mC]) [compound 180801]”, the “% INHIB” value is 40%.
The result for “180800 (antisense eA*e[5mC]*eA*eT*eG*dG*dA*dG*d[5mC]*dG*dG*dG*dA*dG*dG*e[5mC]*eG*eG*e[5mC]*eG) [compound 180800]” reads 54%.
Consider “180823 (antisense eT*eA*eA*eA*eT*dA*dT*dT*dT*dT*dG*dA*dA*dT*d[5mC]*eA*eA*eA*eT*eA) [compound 180823]”, for which the “% INHIB” value was found to be 9%.
The result for “180818 (antisense eT*e[5mC]*eA*eG*eT*dG*dG*d[5mC]*dA*d[5mC]*dA*dT*dG*dT*d[5mC]*e[5mC]*eA*eG*eG*eG) [compound 180818]” reads 59%; that for “gctggcccggcgcatggcgc (antisense eG*e[5mC]*eT*eG*eG*d[5mC]*d[5mC]*d[5mC]*dG*dG*d[5mC]*dG*d[5mC]*dA*dT*eG*eG*e[5mC]*eG*e[5mC]) [ISIS 180795, 2′-MOE gapmer targeted to mouse RANKL]”, “at least 40%”.
The result for “180795 (antisense eG*e[5mC]*eT*eG*eG*d[5mC]*d[5mC]*d[5mC]*dG*dG*d[5mC]*dG*d[5mC]*dA*dT*eG*eG*e[5mC]*eG*e[5mC]) [compound 180795]” reads 62%.
The result for “agctgaagatagtctgtagg (antisense eA*eG*e[5mC]*eT*eG*dA*dA*dG*dA*dT*dA*dG*dT*d[5mC]*dT*eG*eT*eA*eG*eG) [ISIS 180808, 2′-MOE gapmer targeted to mouse RANKL]” reads “at least 40%”; that for “180793 (antisense eG*e[5mC]*e[5mC]*e[5mC]*eT*dG*d[5mC]*dT*d[5mC]*d[5mC]*dG*d[5mC]*dG*dA*dT*e[5mC]*eG*eT*eT*e[5mC]) [compound 180793]”, 74%; that for “180833 (antisense e[5mC]*eA*eG*eA*eG*dA*d[5mC]*dA*dA*dT*dG*d[5mC]*dT*dT*dT*eT*eA*eT*eT*eG) [compound 180833]”, 22%.
Consider “180820 (antisense e[5mC]*eT*eT*eA*eT*dT*dT*dG*d[5mC]*dA*dG*dG*dT*d[5mC]*d[5mC]*e[5mC]*eA*eG*e[5mC]*eG) [compound 180820]”, for which the “% INHIB” value amounted to 44%.
Next, “180822 (antisense eA*eA*eT*e[5mC]*eA*dA*dA*dT*dA*d[5mC]*dT*dA*dT*dA*dG*e[5mC]*eA*e[5mC]*eA*eA) [compound 180822]”: 24%; “180831 (antisense e[5mC]*e[5mC]*eT*eG*eA*d[5mC]*dA*dG*dA*dT*dT*dT*d[5mC]*dA*dG*eT*eA*eG*e[5mC]*e[5mC]) [compound 180831]”: 54%.
On to “ccgccgagcagactccgcca (antisense e[5mC]*e[5mC]*eG*e[5mC]*e[5mC]*dG*dA*dG*d[5mC]*dA*dG*dA*d[5mC]*dT*d[5mC]*e[5mC]*eG*e[5mC]*e[5mC]*eA) [ISIS 180791, 2′-MOE gapmer targeted to mouse RANKL]”, for which the “% INHIB” value is given as “at least 40%”.
For the substance “aacatggagcgggaggcggc (antisense eA*eA*e[5mC]*eA*eT*dG*dG*dA*dG*d[5mC]*dG*dG*dG*dA*dG*eG*e[5mC]*eG*eG*e[5mC]) [ISIS 180801, 2′-MOE gapmer targeted to mouse RANKL]”, the “% INHIB” value is reported as “at least 40%”.
Next, “atgttccacgaaatgagtct (antisense eA*eT*eG*eT*eT*d[5mC]*d[5mC]*dA*d[5mC]*dG*dA*dA*dA*dT*dG*eA*eG*eT*e[5mC]*eT) [ISIS 180813, 2′-MOE gapmer targeted to mouse RANKL]”: “at least 40%”; “180805 (antisense eG*eG*e[5mC]*eT*eT*dG*d[5mC]*d[5mC]*dT*d[5mC]*dG*d[5mC]*dT*dG*dG*eG*e[5mC]*e[5mC]*eA*e[5mC]) [compound 180805]”: 62%; “180824 (antisense eT*eG*eT*e[5mC]*eA*dA*d[5mC]*dA*dG*dT*dG*dA*dG*dA*d[5mC]*eA*eT*eT*eT*eT) [compound 180824]”: 29%.
With “180816 (antisense eA*e[5mC]*e[5mC]*eG*eT*dT*dG*dT*dG*dT*dA*dA*dT*d[5mC]*dA*e[5mC]*e[5mC]*eA*eT*eG) [compound 180816]”, the “% INHIB” value came out at 35%.
Next, “tccggatccagcagggaagg (antisense eT*e[5mC]*e[5mC]*eG*eG*dA*dT*d[5mC]*d[5mC]*dA*dG*d[5mC]*dA*dG*dG*eG*eA*eA*eG*eG) [ISIS 180812, 2′-MOE gapmer targeted to mouse RANKL]”: “at least 40%”.
The result for “180826 (antisense eT*eA*e[5mC]*eA*eA*dA*dG*dT*dG*d[5mC]*dA*d[5mC]*d[5mC]*dA*dG*eT*eT*eA*eA*eA) [compound 180826]” reads 33%.
Next, “tcggctggcccggcgcatgg (antisense eT*e[5mC]*eG*eG*e[5mC]*dT*dG*dG*d[5mC]*d[5mC]*d[5mC]*dG*dG*d[5mC]*dG*e[5mC]*eA*eT*eG*eG) [ISIS 180796, 2′-MOE gapmer targeted to mouse RANKL]”: “at least 40%”; “180813 (antisense eA*eT*eG*eT*eT*d[5mC]*d[5mC]*dA*d[5mC]*dG*dA*dA*dA*dT*dG*eA*eG*eT*e[5mC]*eT) [compound 180813]”: 48%; “180789 (antisense eG*e[5mC]*eA*eG*eA*d[5mC]*dT*d[5mC]*d[5mC]*dG*d[5mC]*d[5mC]*dA*d[5mC]*dG*eG*e[5mC]*e[5mC]*e[5mC]*e[5mC]) [compound 180789]”: 34%.
On to “acatggagcgggaggcggcg (antisense eA*e[5mC]*eA*eT*eG*dG*dA*dG*d[5mC]*dG*dG*dG*dA*dG*dG*e[5mC]*eG*eG*e[5mC]*eG) [ISIS 180800, 2′-MOE gapmer targeted to mouse RANKL]”, for which the “% INHIB” value is reported as “at least 40%”.
For the substance “gccctgctccgcgatcgttc (antisense eG*e[5mC]*e[5mC]*e[5mC]*eT*dG*d[5mC]*dT*d[5mC]*d[5mC]*dG*d[5mC]*dG*dA*dT*e[5mC]*eG*eT*eT*e[5mC]) [ISIS 180793, 2′-MOE gapmer targeted to mouse RANKL]”, the “% INHIB” value was “at least 40%”.
The result for “180817 (antisense eG*e[5mC]*eA*eT*e[5mC]*dG*dG*dA*dA*dT*dA*d[5mC]*d[5mC]*dT*d[5mC]*eT*e[5mC]*e[5mC]*e[5mC]*eA) [compound 180817]” reads 51%; that for “gttcacaaaggtcctggcag (antisense eG*eT*eT*e[5mC]*eA*d[5mC]*dA*dA*dA*dG*dG*dT*d[5mC]*d[5mC]*dT*eG*eG*e[5mC]*eA*eG) [ISIS 180788, 2′-MOE gapmer targeted to mouse RANKL]”, “at least 40%”.
The result for “agctacgagtaccttcaggg (antisense eA*eG*e[5mC]*eT*eA*d[5mC]*dG*dA*dG*dT*dA*d[5mC]*d[5mC]*dT*dT*e[5mC]*eA*eG*eG*eG) [ISIS 180827, 2′-MOE gapmer targeted to mouse RANKL]” reads “at least 40%”; that for “180815 (antisense eT*e[5mC]*eA*eT*eA*d[5mC]*dA*d[5mC]*d[5mC]*dG*dT*dG*dG*dG*d[5mC]*e[5mC]*eA*eT*eG*eT) [compound 180815]”, 30%; that for “180827 (antisense eA*eG*e[5mC]*eT*eA*d[5mC]*dG*dA*dG*dT*dA*d[5mC]*d[5mC]*dT*dT*e[5mC]*eA*eG*eG*eG) [compound 180827]”, 54%.
Next, “180810 (antisense eT*e[5mC]*eA*eG*eA*dA*dT*dT*dG*d[5mC]*d[5mC]*d[5mC]*dG*dA*d[5mC]*e[5mC]*eA*eG*eT*eT) [compound 180810]”: 83%.

Source of the values: US20050060764A1, “Mouse model for bone metabolism” (priority 2003, published 2005).
